According to ChEMBL document CHEMBL3991601, “The target landscape of clinical kinase drugs” (Science, 2017):
Calls of active or inactive are those of the source.

Legend:
[1] = target: Serine/threonine-protein kinase pim-2 (Homo sapiens, UniProt Q9P1W9)
[2] = target: Dual specificity mitogen-activated protein kinase kinase 1 (Homo sapiens, UniProt Q02750)
[3] = target: T1, Cysteine--tRNA ligase, cytoplasmic (Homo sapiens, UniProt P49589)
T1 sequence (P49589 whole entry): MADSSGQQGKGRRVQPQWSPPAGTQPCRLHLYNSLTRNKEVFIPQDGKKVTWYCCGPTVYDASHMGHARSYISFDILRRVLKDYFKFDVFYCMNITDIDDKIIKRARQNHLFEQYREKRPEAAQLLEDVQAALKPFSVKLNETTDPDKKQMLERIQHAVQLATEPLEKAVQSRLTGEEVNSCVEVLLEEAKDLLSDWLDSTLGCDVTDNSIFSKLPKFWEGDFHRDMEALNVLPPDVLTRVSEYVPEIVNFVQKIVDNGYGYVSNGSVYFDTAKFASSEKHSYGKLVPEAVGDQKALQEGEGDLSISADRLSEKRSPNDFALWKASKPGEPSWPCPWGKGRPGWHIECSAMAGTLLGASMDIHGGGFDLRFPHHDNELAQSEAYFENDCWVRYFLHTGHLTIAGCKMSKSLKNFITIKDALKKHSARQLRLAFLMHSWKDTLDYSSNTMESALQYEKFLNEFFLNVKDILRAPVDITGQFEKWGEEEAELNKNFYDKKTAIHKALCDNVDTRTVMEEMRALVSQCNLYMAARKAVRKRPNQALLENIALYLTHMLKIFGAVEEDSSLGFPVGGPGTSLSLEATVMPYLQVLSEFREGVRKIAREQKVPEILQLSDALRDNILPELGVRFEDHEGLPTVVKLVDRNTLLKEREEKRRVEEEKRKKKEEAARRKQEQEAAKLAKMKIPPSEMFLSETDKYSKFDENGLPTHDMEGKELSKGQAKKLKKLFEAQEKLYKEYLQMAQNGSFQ

[4] = target: Dual specificity testis-specific protein kinase 2 (Homo sapiens, UniProt Q96S53)
[5] = target: T2, EKC/KEOPS complex subunit TP53RK (Homo sapiens, UniProt Q96S44)
T2 sequence (Q96S44 whole entry): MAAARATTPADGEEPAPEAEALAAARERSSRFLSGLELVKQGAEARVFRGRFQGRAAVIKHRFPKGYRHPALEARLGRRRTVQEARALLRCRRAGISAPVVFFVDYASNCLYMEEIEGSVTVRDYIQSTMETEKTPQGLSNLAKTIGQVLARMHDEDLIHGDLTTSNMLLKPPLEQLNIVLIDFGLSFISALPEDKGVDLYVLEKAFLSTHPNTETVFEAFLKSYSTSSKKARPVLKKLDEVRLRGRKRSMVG

[6] = target: Dual specificity protein kinase CLK2 (Homo sapiens, UniProt P49760)
Dual specificity protein kinase CLK2, sequence (P49760 whole entry): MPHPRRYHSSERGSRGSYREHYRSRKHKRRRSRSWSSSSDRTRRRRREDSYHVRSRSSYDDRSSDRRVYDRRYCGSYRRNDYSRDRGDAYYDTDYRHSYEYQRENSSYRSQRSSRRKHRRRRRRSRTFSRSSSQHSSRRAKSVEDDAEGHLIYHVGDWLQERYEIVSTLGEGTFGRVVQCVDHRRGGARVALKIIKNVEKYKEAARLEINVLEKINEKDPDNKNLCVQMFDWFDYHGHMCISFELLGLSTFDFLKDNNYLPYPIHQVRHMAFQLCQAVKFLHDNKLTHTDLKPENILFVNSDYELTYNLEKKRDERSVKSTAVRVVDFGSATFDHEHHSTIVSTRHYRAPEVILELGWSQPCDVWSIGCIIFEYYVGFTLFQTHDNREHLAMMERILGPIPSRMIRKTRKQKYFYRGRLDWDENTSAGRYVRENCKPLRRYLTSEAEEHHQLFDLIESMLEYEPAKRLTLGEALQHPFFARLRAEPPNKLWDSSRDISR

[7] = target: Protein kinase C theta type (Homo sapiens, UniProt Q04759)
Protein kinase C theta type, sequence (Q04759 whole entry): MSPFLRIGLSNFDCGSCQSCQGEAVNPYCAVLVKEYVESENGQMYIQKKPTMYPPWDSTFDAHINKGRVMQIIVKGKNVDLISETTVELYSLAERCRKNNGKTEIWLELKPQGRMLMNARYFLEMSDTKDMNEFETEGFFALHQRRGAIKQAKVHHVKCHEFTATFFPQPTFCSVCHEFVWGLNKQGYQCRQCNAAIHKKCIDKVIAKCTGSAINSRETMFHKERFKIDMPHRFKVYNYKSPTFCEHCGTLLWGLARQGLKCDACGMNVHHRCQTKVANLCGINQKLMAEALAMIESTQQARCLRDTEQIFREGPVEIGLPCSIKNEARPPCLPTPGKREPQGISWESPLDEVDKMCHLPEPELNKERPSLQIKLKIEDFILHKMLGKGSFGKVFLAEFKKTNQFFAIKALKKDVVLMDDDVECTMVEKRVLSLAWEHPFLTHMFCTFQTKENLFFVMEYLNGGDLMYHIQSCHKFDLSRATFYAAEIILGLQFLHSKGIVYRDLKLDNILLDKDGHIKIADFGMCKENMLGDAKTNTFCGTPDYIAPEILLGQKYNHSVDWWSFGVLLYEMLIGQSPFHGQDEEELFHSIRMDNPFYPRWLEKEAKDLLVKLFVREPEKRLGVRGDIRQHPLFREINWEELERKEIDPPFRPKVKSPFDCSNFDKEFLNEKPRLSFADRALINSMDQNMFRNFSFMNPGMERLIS

Myosin-10 = Myosin-10 (Homo sapiens, UniProt P35580)
Myosin-10, sequence (P35580 whole entry, the tested form may be a part): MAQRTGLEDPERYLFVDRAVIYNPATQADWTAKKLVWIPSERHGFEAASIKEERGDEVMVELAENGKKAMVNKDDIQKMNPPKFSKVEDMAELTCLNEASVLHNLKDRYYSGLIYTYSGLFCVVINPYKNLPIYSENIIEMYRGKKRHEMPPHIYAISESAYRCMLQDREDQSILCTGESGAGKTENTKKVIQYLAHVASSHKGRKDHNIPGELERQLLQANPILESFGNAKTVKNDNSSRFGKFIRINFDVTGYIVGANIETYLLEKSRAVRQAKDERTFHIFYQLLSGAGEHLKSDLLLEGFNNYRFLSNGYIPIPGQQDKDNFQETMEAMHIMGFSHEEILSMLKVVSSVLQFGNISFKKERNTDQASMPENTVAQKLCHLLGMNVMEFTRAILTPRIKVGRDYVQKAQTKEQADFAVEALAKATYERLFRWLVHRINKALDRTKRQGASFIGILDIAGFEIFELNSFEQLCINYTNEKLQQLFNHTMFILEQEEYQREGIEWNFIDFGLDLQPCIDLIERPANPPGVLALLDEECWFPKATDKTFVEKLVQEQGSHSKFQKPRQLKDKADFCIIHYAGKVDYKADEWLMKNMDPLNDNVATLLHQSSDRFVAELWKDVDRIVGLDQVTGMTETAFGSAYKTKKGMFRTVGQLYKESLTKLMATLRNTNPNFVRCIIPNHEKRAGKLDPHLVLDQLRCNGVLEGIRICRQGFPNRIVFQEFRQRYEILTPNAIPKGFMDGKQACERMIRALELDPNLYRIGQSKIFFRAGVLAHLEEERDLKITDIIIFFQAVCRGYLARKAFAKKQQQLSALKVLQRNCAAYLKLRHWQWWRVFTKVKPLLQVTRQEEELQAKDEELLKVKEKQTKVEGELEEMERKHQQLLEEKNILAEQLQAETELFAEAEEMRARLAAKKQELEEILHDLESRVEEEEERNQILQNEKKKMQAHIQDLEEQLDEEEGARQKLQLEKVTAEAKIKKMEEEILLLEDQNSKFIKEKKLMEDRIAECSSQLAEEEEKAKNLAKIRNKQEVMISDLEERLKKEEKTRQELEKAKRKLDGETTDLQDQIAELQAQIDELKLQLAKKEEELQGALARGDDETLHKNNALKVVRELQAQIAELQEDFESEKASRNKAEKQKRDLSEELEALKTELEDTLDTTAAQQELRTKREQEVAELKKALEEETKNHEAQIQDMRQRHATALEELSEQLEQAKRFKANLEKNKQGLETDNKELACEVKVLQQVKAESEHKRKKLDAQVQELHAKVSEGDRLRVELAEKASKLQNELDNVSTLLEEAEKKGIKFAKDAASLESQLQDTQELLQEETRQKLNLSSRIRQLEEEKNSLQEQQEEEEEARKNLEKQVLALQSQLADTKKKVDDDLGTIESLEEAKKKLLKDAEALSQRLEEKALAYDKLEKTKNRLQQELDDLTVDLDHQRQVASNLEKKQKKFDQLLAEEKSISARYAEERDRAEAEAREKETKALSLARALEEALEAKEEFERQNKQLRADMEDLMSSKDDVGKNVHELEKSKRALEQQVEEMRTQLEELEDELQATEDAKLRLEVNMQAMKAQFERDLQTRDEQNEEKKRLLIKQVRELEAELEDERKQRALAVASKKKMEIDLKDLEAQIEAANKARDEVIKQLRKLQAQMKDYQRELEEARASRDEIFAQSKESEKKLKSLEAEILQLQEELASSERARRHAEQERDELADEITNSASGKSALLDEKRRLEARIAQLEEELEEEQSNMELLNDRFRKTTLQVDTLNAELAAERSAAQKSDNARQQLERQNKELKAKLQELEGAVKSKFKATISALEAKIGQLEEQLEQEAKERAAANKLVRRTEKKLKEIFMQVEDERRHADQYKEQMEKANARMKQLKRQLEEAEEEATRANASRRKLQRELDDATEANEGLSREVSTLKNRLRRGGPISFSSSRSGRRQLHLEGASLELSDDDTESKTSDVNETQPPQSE

[8] = target: T3, AarF domain-containing protein kinase 1 (Homo sapiens, UniProt Q86TW2)
T3 sequence (Q86TW2 whole entry): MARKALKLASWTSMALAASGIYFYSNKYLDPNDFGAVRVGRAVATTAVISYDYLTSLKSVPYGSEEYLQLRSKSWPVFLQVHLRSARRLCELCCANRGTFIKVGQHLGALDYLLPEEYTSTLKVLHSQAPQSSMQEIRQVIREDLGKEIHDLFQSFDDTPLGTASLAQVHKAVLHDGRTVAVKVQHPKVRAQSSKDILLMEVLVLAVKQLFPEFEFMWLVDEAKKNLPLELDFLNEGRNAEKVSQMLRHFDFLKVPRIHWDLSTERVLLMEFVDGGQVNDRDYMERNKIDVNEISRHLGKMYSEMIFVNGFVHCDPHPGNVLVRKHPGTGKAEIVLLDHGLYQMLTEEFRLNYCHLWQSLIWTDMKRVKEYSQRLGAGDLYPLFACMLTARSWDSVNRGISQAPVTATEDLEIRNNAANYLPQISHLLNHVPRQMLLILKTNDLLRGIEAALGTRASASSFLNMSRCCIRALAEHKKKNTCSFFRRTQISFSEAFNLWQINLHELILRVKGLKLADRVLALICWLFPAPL

[9] = target: Membrane-associated progesterone receptor component 1 (Homo sapiens, UniProt O00264)
Membrane-associated progesterone receptor component 1, sequence (O00264 whole entry): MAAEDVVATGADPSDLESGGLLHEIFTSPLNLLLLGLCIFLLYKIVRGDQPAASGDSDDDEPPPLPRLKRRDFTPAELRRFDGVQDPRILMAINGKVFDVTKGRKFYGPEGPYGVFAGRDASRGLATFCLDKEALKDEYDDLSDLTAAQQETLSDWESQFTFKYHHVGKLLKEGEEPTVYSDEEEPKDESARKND

[10] = target: Proto-oncogene tyrosine-protein kinase receptor Ret (Homo sapiens, UniProt P07949)
[11] = target: Uncharacterized aarF domain-containing protein kinase 5 (Homo sapiens, UniProt Q3MIX3)
Uncharacterized aarF domain-containing protein kinase 5, sequence (Q3MIX3 whole entry, the tested form may be a part): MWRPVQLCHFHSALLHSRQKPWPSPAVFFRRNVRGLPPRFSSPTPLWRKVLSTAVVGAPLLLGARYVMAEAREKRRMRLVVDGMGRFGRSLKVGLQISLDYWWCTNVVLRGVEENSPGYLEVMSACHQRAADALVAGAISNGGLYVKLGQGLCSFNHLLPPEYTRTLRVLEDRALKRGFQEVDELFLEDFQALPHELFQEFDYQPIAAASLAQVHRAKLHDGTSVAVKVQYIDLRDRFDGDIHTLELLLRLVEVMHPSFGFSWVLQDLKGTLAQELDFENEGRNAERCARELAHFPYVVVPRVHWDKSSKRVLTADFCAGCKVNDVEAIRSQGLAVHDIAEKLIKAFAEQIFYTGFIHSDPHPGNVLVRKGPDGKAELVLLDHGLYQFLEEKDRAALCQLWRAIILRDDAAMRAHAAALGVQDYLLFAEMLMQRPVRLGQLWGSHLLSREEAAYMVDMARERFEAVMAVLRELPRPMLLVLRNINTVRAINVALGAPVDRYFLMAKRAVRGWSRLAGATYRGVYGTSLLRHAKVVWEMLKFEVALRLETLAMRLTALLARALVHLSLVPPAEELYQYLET

[12] = target: Serine/threonine-protein kinase Nek7 (Homo sapiens, UniProt Q8TDX7)
Serine/threonine-protein kinase Nek7, sequence (Q8TDX7 whole entry): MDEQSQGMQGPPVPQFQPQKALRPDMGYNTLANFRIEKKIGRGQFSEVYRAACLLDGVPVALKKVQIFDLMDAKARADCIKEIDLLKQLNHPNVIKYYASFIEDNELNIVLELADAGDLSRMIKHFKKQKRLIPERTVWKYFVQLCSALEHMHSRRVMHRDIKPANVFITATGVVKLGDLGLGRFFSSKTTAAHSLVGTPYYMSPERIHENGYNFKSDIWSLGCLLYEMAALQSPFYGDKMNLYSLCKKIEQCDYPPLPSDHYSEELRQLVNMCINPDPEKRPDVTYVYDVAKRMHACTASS

[13] = target: DNA topoisomerase 2-alpha (Homo sapiens, UniProt P11388)
Note: in the data inactive means no Kd found up to 30 µM.

Dual specificity mitogen-activated protein kinase kinase 1, sequence (Q02750 whole entry): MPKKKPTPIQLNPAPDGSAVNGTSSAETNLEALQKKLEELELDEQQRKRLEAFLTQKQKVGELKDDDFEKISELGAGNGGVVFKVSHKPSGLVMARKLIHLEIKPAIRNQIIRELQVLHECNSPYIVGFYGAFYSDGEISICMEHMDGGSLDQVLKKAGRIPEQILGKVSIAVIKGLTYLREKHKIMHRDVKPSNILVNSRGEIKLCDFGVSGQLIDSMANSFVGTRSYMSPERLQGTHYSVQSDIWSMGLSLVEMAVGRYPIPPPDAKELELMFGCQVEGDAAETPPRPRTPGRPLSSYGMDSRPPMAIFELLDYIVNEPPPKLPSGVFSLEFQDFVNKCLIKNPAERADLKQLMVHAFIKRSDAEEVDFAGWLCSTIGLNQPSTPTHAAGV
Serine/threonine-protein kinase pim-2, sequence (Q9P1W9 whole entry): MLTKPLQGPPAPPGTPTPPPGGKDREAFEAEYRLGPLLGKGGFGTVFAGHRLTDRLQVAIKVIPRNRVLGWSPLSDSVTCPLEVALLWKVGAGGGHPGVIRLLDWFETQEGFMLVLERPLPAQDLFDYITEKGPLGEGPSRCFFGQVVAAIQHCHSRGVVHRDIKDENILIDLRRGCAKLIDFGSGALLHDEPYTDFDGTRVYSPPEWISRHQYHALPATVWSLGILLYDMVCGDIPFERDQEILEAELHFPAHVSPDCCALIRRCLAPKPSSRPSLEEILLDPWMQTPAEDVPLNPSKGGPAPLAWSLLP

SMILES | Kd [1] | Kd [2] | Kd [3] | Kd [4] | Kd [5] | Kd [6] | Kd [7] | Kd (Myosin-10) | Kd [8] | Kd [9] | Kd [10] | Kd [11] | Kd [12] | Kd [13]
COc1ccc(-c2ccc3ncc4c(c3c2)n(-c2ccc(N3CCNCC3)c(C(F)(F)F)c2)c(=O)n4C)cn1 [BGT-226 FREE BASE] | > 30 µM (inactive) | > 30 µM (inactive) | > 30 µM (inactive) | > 30 µM (inactive) | 1.01 µM (active) | > 30 µM (inactive) | > 30 µM (inactive) | > 30 µM (inactive) | > 30 µM (inactive) | > 30 µM (inactive) | > 30 µM (inactive) | > 30 µM (inactive) | > 30 µM (inactive) | > 30 µM (inactive)
c1cc(OCCN2CCCCC2)cc(-c2n[nH]c3ccc(-c4nc[nH]n4)cc23)c1 [CC-401] | > 30 µM (inactive) | > 30 µM (inactive) | > 30 µM (inactive) | > 30 µM (inactive) | > 30 µM (inactive) | > 30 µM (inactive) | > 30 µM (inactive) |  | > 30 µM (inactive) | > 30 µM (inactive) | > 30 µM (inactive) | > 30 µM (inactive) | > 30 µM (inactive) | > 30 µM (inactive)
C#Cc1cccc(Nc2ncnc3cc4c(cc23)OCCOCCOCCO4)c1 [ICOTINIB] | > 30 µM (inactive) | > 30 µM (inactive) | 0.652 µM (active) | > 30 µM (inactive) | > 30 µM (inactive) | > 30 µM (inactive) | > 30 µM (inactive) | > 30 µM (inactive) | > 30 µM (inactive) | > 30 µM (inactive) | > 30 µM (inactive) | > 30 µM (inactive) | > 30 µM (inactive) | > 30 µM (inactive)
Cn1c(=O)c(F)c(Nc2ccc(I)cc2F)c2c(=O)n(C[C@@H](O)CO)cnc21 [TAK-733] | > 30 µM (inactive) | 0.021 µM (active) |  | > 30 µM (inactive) | > 30 µM (inactive) | > 30 µM (inactive) | > 30 µM (inactive) | > 30 µM (inactive) | > 30 µM (inactive) | > 30 µM (inactive) | > 30 µM (inactive) | > 30 µM (inactive) | > 30 µM (inactive) | > 30 µM (inactive)
Cc1cc(-c2cc(OC(=O)c3ccccc3)ccc2Cl)cc2nnc(Nc3ccc(OCCN4CCCC4)cc3)nc12 [TG100-801] | > 30 µM (inactive) | > 30 µM (inactive) |  | > 30 µM (inactive) | > 30 µM (inactive) | > 30 µM (inactive) | > 30 µM (inactive) | > 30 µM (inactive) | > 30 µM (inactive) |  | 1.03 µM (active) | > 30 µM (inactive) | > 30 µM (inactive) | 
